Source: patent publication US20120083522A1, “MODULATION OF INFLAMMATORY RESPONSES BY FACTOR XI” (Isis Pharmaceuitcals, inc., priority 2009, published 2012)
In the oligonucleotide strings, read from the 5' end, every base follows the letter of its sugar. An asterisk marks phosphorothioate; unmarked linkages are phosphodiester. Other units and linkages are bracketed, terminal groups are in braces. A string of capitals states the bases alone. e = 2'-O-(2-methoxyethyl) (MOE); [5mC] = 5-methylcytosine; d = 2'-deoxy (DNA)

System: human Factor XI mRNA
Experiment: Antisense inhibition in HepG2 cells by microwalk gapmers, 75 nM, lipofectin (Example 3)
Type: cell-based
Conditions: HepG2 cells, 75 nM, oligonucleotides targeted to nucleobases 1275 to 1318 of SEQ ID NO: 1
Outline: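 HepG2 cells (10,000 per well) were transfected with 75 nM gapmer using lipofectin and treated for about 24 h. Factor XI mRNA was quantified by real-time PCR, normalized to RiboGreen total RNA and expressed as percent inhibition versus untreated controls.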

Substance	% inhibition of human Factor XI mRNA levels [%]
417012 (antisense eG*eG*dA*d[5mC]*dG*dG*d[5mC]*dA*dT*dT*dG*dG*dT*dG*d[5mC]*eA*e[5mC]*eA*eG*eT) [compound 417012]	72
417013 (antisense e[5mC]*eG*dG*dA*d[5mC]*dG*dG*d[5mC]*dA*dT*dT*dG*dG*dT*dG*e[5mC]*eA*e[5mC]*eA*eG) [compound 417013]	86
417014 (antisense eG*e[5mC]*dG*dG*dA*d[5mC]*dG*dG*d[5mC]*dA*dT*dT*dG*dG*dT*eG*e[5mC]*eA*e[5mC]*eA) [compound 417014]	87
417015 (antisense eA*eG*d[5mC]*dG*dG*dA*d[5mC]*dG*dG*d[5mC]*dA*dT*dT*dG*dG*eT*eG*e[5mC]*eA*e[5mC]) [compound 417015]	87
417016 (antisense e[5mC]*eA*dG*d[5mC]*dG*dG*dA*d[5mC]*dG*dG*d[5mC]*dA*dT*dT*dG*eG*eT*eG*e[5mC]*eA) [compound 417016]	85
417017 (antisense eG*e[5mC]*dA*dG*d[5mC]*dG*dG*dA*d[5mC]*dG*dG*d[5mC]*dA*dT*dT*eG*eG*eT*eG*e[5mC]) [compound 417017]	82
417018 (antisense eG*eG*d[5mC]*dA*dG*d[5mC]*dG*dG*dA*d[5mC]*dG*dG*d[5mC]*dA*dT*eT*eG*eG*eT*eG) [compound 417018]	82
417019 (antisense eT*eG*dG*d[5mC]*dA*dG*d[5mC]*dG*dG*dA*d[5mC]*dG*dG*d[5mC]*dA*eT*eT*eG*eG*eT) [compound 417019]	84
417020 (antisense e[5mC]*eT*dG*dG*d[5mC]*dA*dG*d[5mC]*dG*dG*dA*d[5mC]*dG*dG*d[5mC]*eA*eT*eT*eG*eG) [compound 417020]	84
417021 (antisense eA*e[5mC]*dT*dG*dG*d[5mC]*dA*dG*d[5mC]*dG*dG*dA*d[5mC]*dG*dG*e[5mC]*eA*eT*eT*eG) [compound 417021]	74
